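Briefly, cells in 96-well plates were exposed to five compound concentrations for 48 h, and endpoints were estimated by linear interpolation. TGI marks complete inhibition of growth.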
How the values were obtained:
Assay in all cases: DTP human tumour cell line panel, 48 h
BT-549 breast = tested on: BT-549 breast
HCT-116 colon = tested on: HCT-116 colon
HCT-15 colon = tested on: HCT-15 colon
HL-60(TB) leukemia = tested on: HL-60(TB) leukemia
HS 578T breast = tested on: HS 578T breast
K-562 leukemia = tested on: K-562 leukemia
MALME-3M melanoma = tested on: MALME-3M melanoma
MDA-MB-231 breast = tested on: MDA-MB-231 breast
MDA-MB-435 = tested on: MDA-MB-435
NCI-H23 lung = tested on: NCI-H23 lung
OVCAR-8 ovarian = tested on: OVCAR-8 ovarian
RPMI-8226 leukemia = tested on: RPMI-8226 leukemia
RXF 393 renal = tested on: RXF 393 renal
SF-268 CNS = tested on: SF-268 CNS
SF-539 CNS = tested on: SF-539 CNS
SK-MEL-5 melanoma = tested on: SK-MEL-5 melanoma
SNB-75 CNS = tested on: SNB-75 CNS

SMILES | TGI (BT-549 breast) [µM] | TGI (HCT-116 colon) [µM] | TGI (HCT-15 colon) [µM] | TGI (HL-60(TB) leukemia) [µM] | TGI (HS 578T breast) [µM] | TGI (K-562 leukemia) [µM] | TGI (MALME-3M melanoma) [µM] | TGI (MDA-MB-231 breast) [µM] | TGI (MDA-MB-435) [µM] | TGI (NCI-H23 lung) [µM] | TGI (OVCAR-8 ovarian) [µM] | TGI (RPMI-8226 leukemia) [µM] | TGI (RXF 393 renal) [µM] | TGI (SF-268 CNS) [µM] | TGI (SF-539 CNS) [µM] | TGI (SK-MEL-5 melanoma) [µM] | TGI (SNB-75 CNS) [µM]
CN(C)c1nc(-c2ccccc2)c(C(=O)c2c[nH]c3ccccc23)s1 | > 100 | > 100 | > 100 | 16.5 | > 28.3 | > 100 | > 100 | > 100 | > 31.1 | > 100 | > 100 | 32 | > 91.5 | > 100 | > 100 | > 100 | 7.71
O=C1C=C(NCCc2cc(Br)c(O)c(Br)c2)C(=O)c2ncccc21 | 5.07 | 11.8 | 18.2 | 16.1 | 8.77 | 10 | 2.49 | 20.3 | 0.723 | 1.66 | 27.3 | 18.3 | 13.4 | 21.9 | 2.52 | 2.57 | 3.13
COc1ccc2c(c1)N=C1CSC(c3cc([N+](=O)[O-])ccc3Cl)N1C2 (stereo unspecified) | 80.7 | 47.4 | 96.4 | 55.7 | > 100 | > 100 | 60.4 | 50 | 47.6 | 62.4 | > 100 | 57.6 | 82 | > 100 | 71.2 | > 100 | 47.5
